Results published in PubChem BioAssay (NCI).
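These data come from cells grown in 96-well plates and exposed to compound for 48 hours at five concentrations. The concentration for 50% growth inhibition is given as GI50. TGI denotes the concentration required for complete inhibition of growth.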

What was measured:
Experiment in all cases: DTP human tumour cell line panel, 48 h
786-0 renal = tested on: 786-0 renal
A498 renal = tested on: A498 renal
A549 NSCLC = tested on: A549 NSCLC
ACHN renal = tested on: ACHN renal
BT-549 breast = tested on: BT-549 breast
CAKI-1 renal = tested on: CAKI-1 renal
CCRF-CEM leukemia = tested on: CCRF-CEM leukemia
COLO 205 colon = tested on: COLO 205 colon
DU-145 prostate = tested on: DU-145 prostate
EKVX NSCLC = tested on: EKVX NSCLC
HCC-2998 colon = tested on: HCC-2998 colon
HCT-15 colon = tested on: HCT-15 colon
HL-60(TB) leukemia = tested on: HL-60(TB) leukemia
HOP-62 NSCLC = tested on: HOP-62 NSCLC
HOP-92 NSCLC = tested on: HOP-92 NSCLC
HS 578T breast = tested on: HS 578T breast
HT29 colon = tested on: HT29 colon
IGROV1 ovarian = tested on: IGROV1 ovarian
K-562 leukemia = tested on: K-562 leukemia
KM12 colon = tested on: KM12 colon
LOX IMVI melanoma = tested on: LOX IMVI melanoma
M14 melanoma = tested on: M14 melanoma
MALME-3M melanoma = tested on: MALME-3M melanoma
MCF7 breast = tested on: MCF7 breast
MDA-MB-231 breast = tested on: MDA-MB-231 breast
MDA-MB-435 = tested on: MDA-MB-435
MOLT-4 leukemia = tested on: MOLT-4 leukemia
NCI-H226 lung = tested on: NCI-H226 lung
NCI-H23 lung = tested on: NCI-H23 lung
NCI-H460 lung = tested on: NCI-H460 lung
NCI-H522 lung = tested on: NCI-H522 lung
NCI/ADR-RES ovarian = tested on: NCI/ADR-RES ovarian
OVCAR-4 ovarian = tested on: OVCAR-4 ovarian
OVCAR-5 ovarian = tested on: OVCAR-5 ovarian
OVCAR-8 ovarian = tested on: OVCAR-8 ovarian
PC-3 prostate = tested on: PC-3 prostate
RPMI-8226 leukemia = tested on: RPMI-8226 leukemia
RXF 393 renal = tested on: RXF 393 renal
SF-268 CNS = tested on: SF-268 CNS
SF-295 CNS = tested on: SF-295 CNS
SF-539 CNS = tested on: SF-539 CNS
SK-MEL-2 melanoma = tested on: SK-MEL-2 melanoma
SK-MEL-28 melanoma = tested on: SK-MEL-28 melanoma
SK-MEL-5 melanoma = tested on: SK-MEL-5 melanoma
SK-OV-3 ovarian = tested on: SK-OV-3 ovarian
SN12C renal = tested on: SN12C renal
SNB-19 CNS = tested on: SNB-19 CNS
SNB-75 CNS = tested on: SNB-75 CNS
SR leukemia = tested on: SR leukemia
SW-620 colon = tested on: SW-620 colon
T-47D breast = tested on: T-47D breast
TK-10 renal = tested on: TK-10 renal
U251 CNS = tested on: U251 CNS
UACC-257 melanoma = tested on: UACC-257 melanoma
UACC-62 melanoma = tested on: UACC-62 melanoma
UO-31 renal = tested on: UO-31 renal

`CNC[C@@H](NC(=O)c1ccc(-c2nc([C@H]3CC[C@H](O)[C@@H](F)C3)cnc2N)cc1F)c1cc(F)cc(Br)c1` showed a GI50 (786-0 renal) of 14 µM, a TGI (786-0 renal) of 29.5 µM and a GI50 (A498 renal) of 13.1 µM. It also gave a TGI (A498 renal) of 26.7 µM, a GI50 (A549 NSCLC) of 14.3 µM and a TGI (A549 NSCLC) of 30.1 µM. The GI50 (ACHN renal) was 15 µM, the TGI (ACHN renal) was 29.1 µM and the GI50 (BT-549 breast) was 11.2 µM. The TGI (BT-549 breast) was 25.3 µM, the GI50 (CAKI-1 renal) was 11.6 µM and the TGI (CAKI-1 renal) was 28.3 µM. It also gave a GI50 (CCRF-CEM leukemia) of 16 µM, a TGI (CCRF-CEM leukemia) of 39.1 µM and a GI50 (COLO 205 colon) of 13 µM. It also gave a TGI (COLO 205 colon) of 27 µM, a GI50 (DU-145 prostate) of 17.2 µM and a TGI (DU-145 prostate) of 32.8 µM. It also gave a GI50 (EKVX NSCLC) of 16.1 µM, a TGI (EKVX NSCLC) of 33.2 µM and a GI50 (HCC-2998 colon) of 17.3 µM. For the same compound, the TGI (HCC-2998 colon) was 31.8 µM, the GI50 (HCT-15 colon) was 16.5 µM and the TGI (HCT-15 colon) was 31.8 µM. The GI50 (HL-60(TB) leukemia) was 13.6 µM, the TGI (HL-60(TB) leukemia) was 34.2 µM and the GI50 (HOP-62 NSCLC) was 14.3 µM. The TGI (HOP-62 NSCLC) was 28.7 µM, the GI50 (HOP-92 NSCLC) was 2.57 µM and the TGI (HOP-92 NSCLC) was 16.5 µM. The GI50 (HS 578T breast) was 12.6 µM, the TGI (HS 578T breast) was 39.4 µM and the GI50 (HT29 colon) was 13.2 µM. It also gave a TGI (HT29 colon) of 27 µM, a GI50 (IGROV1 ovarian) of 16 µM and a TGI (IGROV1 ovarian) of 34 µM. For the same compound, the GI50 (K-562 leukemia) was 13.6 µM, the TGI (K-562 leukemia) was 38.2 µM and the GI50 (KM12 colon) was 16 µM. It also gave a TGI (KM12 colon) of 31.3 µM, a GI50 (LOX IMVI melanoma) of 15 µM and a TGI (LOX IMVI melanoma) of 29.4 µM. The GI50 (M14 melanoma) was 15.2 µM, the TGI (M14 melanoma) was 31.1 µM and the GI50 (MALME-3M melanoma) was 13.9 µM. For the same compound, the TGI (MALME-3M melanoma) was 28.9 µM, the GI50 (MCF7 breast) was 18.3 µM and the TGI (MCF7 breast) was 34.5 µM. It also gave a GI50 (MDA-MB-231 breast) of 12.7 µM, a TGI (MDA-MB-231 breast) of 27.3 µM and a GI50 (MDA-MB-435) of 16.1 µM. The TGI (MDA-MB-435) was 30.9 µM, the GI50 (MOLT-4 leukemia) was 15 µM and the TGI (MOLT-4 leukemia) was 49.2 µM. It also gave a GI50 (NCI-H226 lung) of 16.5 µM, a TGI (NCI-H226 lung) of 35.3 µM and a GI50 (NCI-H23 lung) of 17.8 µM. For the same compound, the TGI (NCI-H23 lung) was 35.3 µM, the GI50 (NCI-H460 lung) was 17.7 µM and the TGI (NCI-H460 lung) was 33.5 µM. The GI50 (NCI-H522 lung) was 16.6 µM, the TGI (NCI-H522 lung) was 32.4 µM and the GI50 (NCI/ADR-RES ovarian) was 38.9 µM. For the same compound, the TGI (NCI/ADR-RES ovarian) was greater than 100 µM, the GI50 (OVCAR-4 ovarian) was 18.1 µM and the TGI (OVCAR-4 ovarian) was 50.2 µM. It also gave a GI50 (OVCAR-5 ovarian) of 16.4 µM, a TGI (OVCAR-5 ovarian) of 40.2 µM and a GI50 (OVCAR-8 ovarian) of 17.3 µM. It also gave a TGI (OVCAR-8 ovarian) of 35 µM, a GI50 (PC-3 prostate) of 12.3 µM and a TGI (PC-3 prostate) of 25.5 µM. It also gave a GI50 (RPMI-8226 leukemia) of 11.2 µM, a TGI (RPMI-8226 leukemia) of 30.8 µM and a GI50 (RXF 393 renal) of 6.28 µM. The TGI (RXF 393 renal) was 21.1 µM, the GI50 (SF-268 CNS) was 12.6 µM and the TGI (SF-268 CNS) was 30.2 µM. For the same compound, the GI50 (SF-295 CNS) was 17.1 µM, the TGI (SF-295 CNS) was 32.5 µM and the GI50 (SF-539 CNS) was 15.2 µM. For the same compound, the TGI (SF-539 CNS) was 29.1 µM, the GI50 (SK-MEL-2 melanoma) was 14 µM and the TGI (SK-MEL-2 melanoma) was 28.7 µM. For the same compound, the GI50 (SK-MEL-28 melanoma) was 17 µM, the TGI (SK-MEL-28 melanoma) was 32.4 µM and the GI50 (SK-MEL-5 melanoma) was 15.2 µM. For the same compound, the TGI (SK-MEL-5 melanoma) was 29.3 µM, the GI50 (SK-OV-3 ovarian) was 17 µM and the TGI (SK-OV-3 ovarian) was 31.3 µM. For the same compound, the GI50 (SN12C renal) was 16.5 µM, the TGI (SN12C renal) was 32.9 µM and the GI50 (SNB-19 CNS) was 17.7 µM. The TGI (SNB-19 CNS) was 36 µM, the GI50 (SNB-75 CNS) was 4.09 µM and the TGI (SNB-75 CNS) was 23.5 µM. For the same compound, the GI50 (SR leukemia) was 13.1 µM, the TGI (SR leukemia) was 35.3 µM and the GI50 (SW-620 colon) was 18.4 µM. For the same compound, the TGI (SW-620 colon) was 34.5 µM, the GI50 (T-47D breast) was 18.3 µM and the TGI (T-47D breast) was 36.2 µM. For the same compound, the GI50 (TK-10 renal) was 12.2 µM, the TGI (TK-10 renal) was 28.9 µM and the GI50 (U251 CNS) was 14.6 µM. For the same compound, the TGI (U251 CNS) was 32.4 µM, the GI50 (UACC-257 melanoma) was 15 µM and the TGI (UACC-257 melanoma) was 30.5 µM. It also gave a GI50 (UACC-62 melanoma) of 17.4 µM, a TGI (UACC-62 melanoma) of 32.8 µM and a GI50 (UO-31 renal) of 12.3 µM. For the same compound, the TGI (UO-31 renal) was 26.4 µM.
